Reference: publication PMC7508583, “Discovery and Preclinical Development of Antigiardiasis Fumagillol Derivatives” (Antimicrobial Agents and Chemotherapy, 2020)
Where two headings read alike, the source gives them in different places.

Experiments:
[1] = test system: E. histolytica HM1:IMSS trophozoites; assay: Trophozoite growth inhibition, ATP content (ATPlite) assay; assay type: cell-based; settings: Entamoeba histolytica, 72 h, read-out: Mean [IC50 ± SE(IC50)] E. histolytica HM1: IMSS
Protocol: (§1) Antigiardia assays followed by enzyme inhibition determination facilitated the selection of compounds for permeation and stability studies by in vitro methods, prior to advancing to in vivo studies. Compound potency was evaluated first by measuring G. lamblia trophozoite growth as a function of the compound concentration and calculating the IC50 values. Potency in Entamoeba histolytica trophozoites was also determined because of the early report that fumagillin cured amebiasis ([19]). The intent was to test whether the compounds would be suitable to treat gastrointestinal amebiasis rather than the invasive form of the disease, given that the designed strategy was based on reducing compound permeation across the epithelial cell barrier. […] Trophozoite growth was determined by monitoring the ATP cell content using a high-throughput homogeneous assay developed previously for G. lamblia ([57]). The ATP content serves as a marker of cell integrity since ATP degrades rapidly when cells die and the luminescence signal generated by luciferase requires ATP. The same assay was also adopted in 96-well plates for E. histolytica trophozoite growth measurement, as described in Materials and Methods. A similar E. histolytica trophozoite ATP content assay was described previously ([58]). Fumagillin, TNP-470, and a standard-of-care drug (metronidazole) served as positive controls, and cells without the drug (in the presence of 0.5% dimethyl sulfoxide [DMSO]) served as the negative control.
E. histolytica strain HM1:IMSS trophozoites were grown at 37°C in TYI-S-33 medium supplemented with penicillin (100 U/ml) and streptomycin sulfate (100 μg/ml) ([65]). Trophozoites were grown anaerobically in borosilicate tubes or T25 flasks, and subcultures were made 1 to 2 times a week. Trophozoites were detached for inoculation by chilling the cultures on ice for 20 min.
The growth inhibition assays were performed in duplicate, once for each compound, for all compounds except fumagillin, which served as a positive control and whose inhibitory ability was measured multiple times as new sets of compounds were tested. All dry compounds except for fumagillin were dissolved in dimethyl sulfoxide (DMSO; Sigma) at a stock concentration of 10 mM and then diluted 1:100 in growth medium to a final compound concentration of 100 μM; fumagillin was diluted to 20 μM. Compound solution aliquots (100 μl) were prepared by 3-fold serial dilutions in growth medium containing 0.5% DMSO and distributed into 96-well assay plates. This was followed by the addition of 10 μl G. lamblia or E. histolytica culture containing 10,000 trophozoites. Fumagillin served as a positive control, and the medium-diluted DMSO alone served as a negative control. The assay plates were placed in a BD GasPak EZ container system (BD Diagnostics) to create an anaerobic growth environment. […] Following incubation, 70 μl/well of the ATPlite reagent (PerkinElmer) was added to the assay plates for one-step lysis and ATP level detection. The luminescent signals of the assay plates were measured on an EnSpire 2300 plate reader (PerkinElmer). Concentration-response titration points for each compound were fitted to a 4-parameter logistic nonlinear regression model using the KaleidaGraph tool, yielding the IC50 value and standard error (SE).

[2] = test system: G. lamblia WB trophozoites; assay: as above; assay type: cell-based; settings: Giardia duodenalis, 72 h, read-out: Mean [IC50 ± SE(IC50)] G. lamblia WB
Protocol: as §1
(§2) Trophozoites of G. lamblia isolates WB and GS were grown anaerobically in borosilicate glass screw-cap culture tubes (Fisher Scientific) at pH 7.0 in Keister’s modified TYI-S-33 medium (ATCC). The medium was supplemented with 10% heat-inactivated bovine serum (Sigma-Aldrich) and 0.05% bovine bile (Sigma-Aldrich). To attain low-oxygen-tension conditions, the tubes were filled to 85% to 90% of their total volume capacity and incubated without shaking at 37°C. Subcultures (2 × 10^5 trophozoites per tube) were made three times a week. Detachment of trophozoites for inoculation was achieved by chilling the cultures on ice for 20 min. Culturing and detachment of metronidazole-resistant G. lamblia assemblage A 713M3 and assemblage B 1279-M1 trophozoites followed the same protocol, except that the growth medium was supplemented with metronidazole, with the concentration gradually being increased to 10 μM.
(§3) The growth inhibition assays were performed in duplicate, once for each compound, for all compounds except fumagillin, which served as a positive control and whose inhibitory ability was measured multiple times as new sets of compounds were tested. All dry compounds except for fumagillin were dissolved in dimethyl sulfoxide (DMSO; Sigma) at a stock concentration of 10 mM and then diluted 1:100 in growth medium to a final compound concentration of 100 μM; fumagillin was diluted to 20 μM. Compound solution aliquots (100 μl) were prepared by 3-fold serial dilutions in growth medium containing 0.5% DMSO and distributed into 96-well assay plates. This was followed by the addition of 10 μl G. lamblia or E. histolytica culture containing 10,000 trophozoites. Fumagillin served as a positive control, and the medium-diluted DMSO alone served as a negative control. The assay plates were placed in a BD GasPak EZ container system (BD Diagnostics) to create an anaerobic growth environment. The sealed containers were incubated at 37°C for 72 h. Following incubation, 70 μl/well of the ATPlite reagent (PerkinElmer) was added to the assay plates for one-step lysis and ATP level detection. The luminescent signals of the assay plates were measured on an EnSpire 2300 plate reader (PerkinElmer). Concentration-response titration points for each compound were fitted to a 4-parameter logistic nonlinear regression model using the KaleidaGraph tool, yielding the IC50 value and standard error (SE).

[3] = test system: G. lamblia GS trophozoites; assay: as above; assay type: cell-based, Giardia lamblia; settings: for IC50: Giardia duodenalis, 72 h, read-out: Mean [IC50 ± SE(IC50)] G. lamblia GS
Protocol: as §1, §2, §3

in vitro = settings: human; for Papp at 120 min, 10 µM: Caco-2, pH 7.4, Mean ± SE Papp, Caco-2, 10 μM
Excerpt: Next, we tested the permeation of the compounds across polarized Caco-2 cell monolayers, a method that is widely used as an in vitro model of the human small intestinal mucosa to predict the absorption of orally administered drugs ([63], [64]). With noninvasive intestinal infections, there is no need to establish a high plasma concentration. Since a high rate of uptake through the host gut lining could increase compound toxicity, we sought to reduce gut absorption. […] Both apical-to-basal and basal-to-apical permeation values were measured to obtain information about efflux. […] The efflux machinery is currently unknown.
Passage 36 Caco-2 cells were used. The cells were cultured in Dulbecco’s modified Eagle’s medium (DMEM; 5 ml of 100 mM sodium pyruvate, 5 ml of 100× nonessential amino acids, 5 ml of penicillin-streptomycin, and 100 ml of heat-inactivated fetal bovine serum added to 385 ml of DMEM aseptically and mixed thoroughly), pH 7.4, at 37°C in 5% CO2. DMEM (250 μl) was added to the basal compartment of 96-well multiscreen Caco-2 cell plate consisting of high-pore-density polycarbonate (Millipore) with a 0.4-μm pore size and a 0.11-cm^2 active membrane area. The cells were seeded at a density of 12,000 cells/well (0.16 × 10^6 cells/ml) in the apical wells, with one well containing only medium as blank. The Caco-2 cell plate was placed in a CO2 incubator at 37°C for cell proliferation. On the day of assay, the medium was removed, washed twice with Hanks balanced salt solution (HBSS) buffer supplemented with 2% bovine serum albumin (BSA), pH 7.4, and incubated with the HBSS buffer for 30 min at 37°C. Wells with transepithelial electrical resistance values of greater than 230 Ω · cm^2 were selected for the experiments. […] The assay was performed in duplicate.
Seventy-five microliters of the test compounds was added to the apical wells, and 250 μl of HBSS buffer with 2% BSA was added to the basal wells. The plate was incubated in a CO2 incubator with shaking on a plate shaker at 150 rpm for 120 min, after which 25 μl of the basal samples was collected and processed.
Two hundred fifty microliters of test compounds was added to the basal wells, and 75 μl of HBSS buffer with 2% BSA was added to the apical wells. The plate was incubated in a CO2 incubator with shaking on a plate shaker at 150 rpm for 120 min, after which 25 μl of the apical samples was collected and processed.
For sample processing, a single-point calibration curve in HBSS buffer with 2% BSA was used. Donor samples were diluted 1:1 with HBSS containing 2% BSA, and receiver samples were diluted with 1:1 HBSS buffer and precipitated with 200 μl of acetonitrile containing internal standard. The samples were vortexed for 5 min at 1,000 rpm and centrifuged at 4,000 rpm for 10 min. One hundred microliters of the supernatant was diluted with 200 μl of water and analyzed by LC-MS/MS (with a Shimadzu ultrafast liquid chromatograph and an API 4000 LC-MS/MS system).
The apparent permeation coefficients (Papp) were calculated as Papp = (dQ/dT) × (1/C0) × (1/A), where dQ is the amount permeated to the receiver compartment of the 96-well plate, dT is the time of compound incubation, C0 is the initial compound concentration in the donor compartment of the well, and A is the surface area of the monolayer.

[4] = trophozoite growth, ATP content

## COC1C(OC(=O)NC(=O)CN(C)C)CCC2(CO2)C1C1(C)OC1CC=C(C)C (centres unmarked) [Compound 1]
[1]; [4]
  IC50: 0.0047 ± 0.0005 µM
[2]; [4]
  IC50: 0.002 ± 0.0002 µM
[3]; [4]
  IC50: 0.0024 ± 0.0005 µM

## COC1C(OC(=O)NC(=O)CN2CCCCC2)CCC2(CO2)C1C1(C)OC1CC=C(C)C (centres unmarked) [Compound 2]
[1]; [4]
  IC50: 0.435 ± 0.079 µM
[2]; [4]
  IC50: 0.0909 ± 0.0343 µM
[3]; [4]
  IC50: 0.0825 ± 0.0264 µM

## COC1C(OC(=O)NC(=O)CN2CCN(C)CC2)CCC2(CO2)C1C1(C)OC1CC=C(C)C (centres unmarked) [Compound 5]
[1]; [4]
  IC50: 0.117 ± 0.0084 µM
[2]; [4]
  IC50: 0.0223 ± 0.0014 µM
[3]; [4]
  IC50: 0.0123 ± 0.0025 µM

## COC1C(OC(=O)NC(=O)CN2CCN(CCO)CC2)CCC2(CO2)C1C1(C)OC1CC=C(C)C (centres unmarked) [Compound 6]
[1]; [4]
  IC50: 0.223 ± 0.0298 µM
[2]; [4]
  IC50: 0.0536 ± 0.0106 µM
[3]; [4]
  IC50: 0.037 ± 0.0044 µM

## COC1C(OC(=O)Nc2ccccc2)CCC2(CO2)C1C1(C)OC1CC=C(C)C (centres unmarked) [Compound 7]
[1]; [4]
  IC50: 0.0146 ± 0.0026 µM
[2]; [4]
  IC50: 0.0037 ± 0.001 µM
[3]; [4]
  IC50: 0.007 ± 0.001 µM

## CCOC(=O)c1ccc(NC(=O)OC2CCC3(CO3)C(C3(C)OC3CC=C(C)C)C2OC)cc1 (centres unmarked) [Compound 8]
[1]; [4]
  IC50: 0.054 ± 0.0043 µM
[2]; [4]
  IC50: 0.0125 ± 0.0042 µM
[3]; [4]
  IC50: 0.0272 ± 0.0181 µM
[3]; trophozoite IC50
  fold less active than compound 7: ~4 fold

## CO[C@@H]1[C@H](OC(=O)Nc2ccc(C(=O)N3CCC(O)CC3)cc2)CC[C@]2(CO2)[C@H]1[C@@]1(C)O[C@@H]1CC=C(C)C [Compound 10, (3R,4S,5S,6R)-5-methoxy-4-((2R,3R)-2-methyl-3-(3-methylbut-2-en-1-yl)oxiran-2-yl)-1-oxaspiro[2.5]octan-6-yl (4-(4-hydroxypiperidine-1-carbonyl)phenyl)carbamate]
[1]
  IC50: 0.032 ± 0.0021 µM
[2]
  IC50: 0.171 ± 0.021 µM
[3]
  IC50: 0.0384 ± 0.0034 µM

## COC1C(OC(=O)Nc2ccc(CC(=O)O)cc2)CCC2(CO2)C1C1(C)OC1CC=C(C)C (centres unmarked) [Compound 12]
[1]; [4]
  IC50: 0.094 ± 0.0068 µM
[2]; [4]
  IC50: 0.342 ± 0.05 µM
[3]; [4]
  IC50: 0.0632 ± 0.01 µM

## CCOC(=O)CNC(=O)OC1CCC2(CO2)C(C2(C)OC2CC=C(C)C)C1OC (centres unmarked) [Compound 13]
[1]
  IC50: 0.0237 ± 0.0026 µM
[2]
  IC50: 0.0131 ± 0.0024 µM
[3]
  IC50: 0.0015 ± 0.0003 µM

## COC1C(OC(=O)NCC(=O)O)CCC2(CO2)C1C1(C)OC1CC=C(C)C (centres unmarked) [Compound 14]
[1]; [4]
  IC50: 11.2 ± 0.123 µM
[2]; [4]
  IC50: > 100 µM
[3]; [4]
  IC50: > 100 µM

## COC1C(OC(=O)N2CCCCC2)CCC2(CO2)C1C1(C)OC1CC=C(C)C (centres unmarked) [Compound 15]
[1]; [4]
  IC50: 0.0078 ± 0.0006 µM
[2]; [4]
  IC50: 0.0049 ± 0.0022 µM
[3]; [4]
  IC50: 0.0029 ± 0.0008 µM

## COC1C(OC(=O)N2CCN(c3ccccc3)CC2)CCC2(CO2)C1C1(C)OC1CC=C(C)C (centres unmarked) [Compound 17]
[1]; [4]
  IC50: > 100 µM
[2]; [4]
  IC50: 0.251 ± 0.07 µM
[3]; G. lamblia trophozoites
  fold loss of potency compared to compound 16: 100 fold
[3]; [4]
  IC50: 0.109 ± 0.0137 µM

## CCOC(=O)CO[C@@H]1CC[C@]2(CO2)[C@@H]([C@@]2(C)O[C@@H]2CC=C(C)C)[C@@H]1OC [Compound 18, ethyl 2-(((3R,4S,5S,6R)-5-methoxy-4-((2R,3R)-2-methyl-3-(3-methylbut-2-en-1-yl)oxiran-2-yl)-1-oxaspiro[2.5]octan-6-yl)oxy)acetate]
[1]
  IC50: 0.318 ± 0.016 µM
[2]
  IC50: 0.0426 ± 0.0175 µM
[3]
  IC50: 0.0401 ± 0.0048 µM

## COC1C(OCC(=O)O)CCC2(CO2)C1C1(C)OC1CC=C(C)C (centres unmarked) [Compound 19]
[1]; [4]
  IC50: > 2 µM
[2]; [4]
  IC50: > 2 µM
[3]; [4]
  IC50: > 2 µM

## CO[C@@H]1[C@H](O)CC[C@]2(CO2)[C@H]1[C@@]1(C)O[C@@H]1CC=C(C)C [Fumagillol]
[3]
  IC50: 3.4 ± 0.489 µM

## CC(C)NCC(O)COc1cccc2ccccc12 (centres unmarked) [Propranolol, reference compound]
In vitro; Caco-2, pH 7.4
  efflux ratio at 120 min, 10 µM: 0.36
In vitro; apical to basal
  Papp at 120 min, 10 µM: 226 ± 11 nm/s
In vitro; basal to apical
  Papp at 120 min, 10 µM: 81.4 ± 2.8 nm/s

## CO[C@@H]1[C@H](OC(=O)NC(=O)CCl)CC[C@]2(CO2)[C@H]1[C@@]1(C)O[C@@H]1CC=C(C)C [TNP-470, (3R,4S,5S,6R)-5-methoxy-4-((2R,3R)-2-methyl-3-(3-methylbut-2-en-1-yl)oxiran-2-yl)-1-oxaspiro[2.5]octan-6-yl (2-chloroacetyl)carbamate, reference compound]
[2]
  IC50: 0.0026 ± 0.0002 µM
[3]
  IC50: 0.0034 ± 0.0007 µM
